In test [1] the test system is Citrullus vulgaris urease (CVU). Nature of the test: Inhibition of CVU urease activity after 1 h incubation with inhibitor (phenol red assay). It is filed as biochemical. To be noted: for IC50: CVU incubated 1 h at 37 °C with inhibitor, 2 mM urea, pH 6.8; for Plateau (% of Initial): residual activity at plateau from the fit, 1 h at 37 °C. The method, then: (§1) The specific ureolytic activity was assayed spectrophotometrically at 37 °C in a Fluostar Omega (BMG LABTECH Inc, Cary, NC, USA) spectrometer. The reaction was monitoring by the increase of ammonia concentration following the absorbance at 558 nm by The Phenol Red Assay, taking similar considerations as the one described elsewhere. The standard urease test consisted in 0.3 mL of reaction buffer: 0.5 mM MES, 0.016 mM phenol red, and 50 mM urea, at pH 6.8. All assays were initiated by the addition of the enzyme (≈0.6 ng/mL). Initial velocity rates were determined from the initial linear portion of the reaction course-times. Saturation kinetics experiments were performed under the same conditions, except that different concentrations of urea were used (0.5 to 50 mM), and data were fitted to Michaelis-Menten model (Equation (1)). All experiments presented were reproduced at least three times.
To evaluate the saturation of CVU with inhibitors, enzyme was incubated for one hour at 37 °C with different concentrations of inhibitors in the standard reaction mixture, the reactions were started by the addition of urea to a final concentration of 2 mM, followed by the measurement of the residual activity. Percentages of residual activity were plotted against inhibitor concentration. Since two types of behavior were observed, two different equations were used to fit the data. In one case, we observed a trend that produced a full loss of activity (Equation (3)), and in the other case a partial inhibition is observed, meaning that at enzyme saturation activity value is non-zero (Equation (4)).
Equation (3): Full-Inhibition Saturation Kinetics, (3) residual activity (%) = A0 IC50h/IC50h+[I]^h where h, is the Hill coefficient; IC50 is the apparent inhibition constant; [I], is the inhibitor concentration. Residual activity and A0 is the same as in Equation (2).
Equation (4): Partially-Inhibition Saturation Kinetics, (4) residual activity (%)= A0 IC50h/IC50h+[I]^h+plateau where parameters and variables are same as in Equation (3), with the difference that a plateau is included.
Inhibition of CVU by Aldrithiol (2,2′-dipyridyl disulphide, here in after called DPS for dipyridine sulfide), captopril ((S)-1-(3-Mercapto-2-methyl-1-oxopropyl)-L-proline), bithionol (2,2′-Sulfanediylbis(4,6-dichlorophenol)) and quercetin were performed in a similar manner as for inhibition experiments with DSF. These inhibitors were purchased from Sigma-Aldrich (Toluca, Mexico). Inhibition kinetics data were fitted to the indicated equation. The protection of the activity by a given inhibitor (called I2), at a concentration equal to the IC50 value, over the inhibition produced by DPS was monitored measuring changes in initial velocity and plotting the percentage of inhibition for each treatment and expressed as mean ± SEM. Student t test was used to estimate statistical significance. Measurements of variance were performed using a one-way ANOVA. Differences were considered significant when p was less than 0.05. All experiments were performed at least three times, and in all cases the SEM justifies the accuracy of the values, except in the case of inhibition kinetics of bithionol and quercetin in which SEM is higher than 10% of the estimated value.

Test [2] deals with Citrullus vulgaris urease (CVU). Nature of the test: Binding equilibrium by intrinsic fluorescence quenching. To be noted: 1 h after addition, 37 °C, read-out: DSF dissociation constant (Kd). The protocol: The binding of DSF was monitored after apparent equilibrium by measuring the intrinsic tryptophan fluorescence intensity changes at 37 °C using a spectrometer (Fluostar Omega, BMG). CVU was excited at 290 nm, and fluorescence intensity was recorded at 340 nm after an hour of incubation at 37 °C in the absence or presence of different concentrations of DSF. In order to discard solvent fluorescent changes, a control experiment was performed in which the different volumes of solvent (same as in the titration volumes used in ligand additions) were added to urease. Fluorescence intensity changes were plotted against the DSF concentrations and fitted to […]. Equation (6): Fluorescence binding saturation, (6) ΔIF = Bmax [DSF]/Kd+[DSF] where ΔIF, is the change in fluorescence intensity at 340 nm; Bmax, is the maximum ΔIF and corresponds to the maximum binding; [DSF], is the disulfiram concentration and Kd, is the dissociation constant.

The test system of test [3] is Citrullus vulgaris urease (CVU). Nature of the test: Time courses of inactivation of CVU pre-incubated with DSF. Format: biochemical. As to conditions: 37 °C. The method, then:
as §1
To evaluate the time and concentration-dependence of the inhibition of urease activity, the initial rates of urea hydrolysis were measured in the standard reaction mixture in the presence of DSF (tetraethylthiuram disulphide), (C2H5)2N(C=S)S–S(S=C)N(C2H5)2, during different incubation periods. DSF was purchased from Sigma-Aldrich (Toluca, Mexico). In these experiments urease reactions were started by the addition of urea to a final concentration of 2 mM. The residual activity in percentage of the initial was plotted against the time of incubation and fitted to an exponential decay equation with a plateau (Equation (2)).
Equation (2): Enzyme inactivation, (2) residual activity = (A0−plateau)(e^−kt)+plateau, where the residual activity is the observed activity upon the inhibition; A0, is the activity observed in the absence of the inhibitor; the plateau, is the value of Y minimum; k, is the observed one phase kinetic constant, and t is the time of incubation. Activity was transformed to percentage, where activity in the absence of DSF is 100%.

Test [4] has the same test system. Nature of the test: Inhibition pattern: urea saturation kinetics of CVU at fixed/variable DSF concentrations. It is filed as biochemical. The protocol: as §1, with “three times. For the inhibition pattern urea saturation kinetics experiments were performed at fixed/variable concentrations of DSF and data were globally fitted to Equation (5).” for “three times.”

As to `Oc1c(Cl)cc(Cl)cc1Sc1cc(Cl)cc(Cl)c1O` [Bithionol, 2,2′-Sulfanediylbis(4,6-dichlorophenol)], in test [1], inhibition was half-maximal at 376 ± 120 µM (IC50) and the “Plateau (% of Initial)” value is listed as 34.53 ± 18.23 % of Initial.

As to `CC(CS)C(=O)N1CCC[C@H]1C(=O)O` (stereo partly drawn) [Captopril, (S)-1-(3-Mercapto-2-methyl-1-oxopropyl)-L-proline], in test [1], the IC50 (commonly the concentration needed to halve the response being measured) stood at 524 ± 39.6 µM and the “Plateau (% of Initial)” value is recorded as 0.00 % of Initial.

Consider `CCN(CC)C(=S)SSC(=S)N(CC)CC` [DSF, tetraethylthiuram disulphide], for which the “Plateau (% of Initial)” value in test [1] was 0.00 % of Initial. Also, the Kd (as a rule, the concentration at which binding is half-saturated) in test [2] was 54.9 ± 3.9 µM. In test [3] (50 µM DSF), the “apparent half-life time of inactivation” value came to 13.80 min; the kobs of inactivation is 0.050 ± 0.007 min⁻¹; the “plateau, % of the initial velocity” value is on record as 63.60% ± 1.40. In test [3] (80 µM DSF), the “apparent half-life time of inactivation” value worked out at 7.50 min; the kobs of inactivation is 0.092 ± 0.024 min⁻¹; the “plateau, % of the initial velocity” value is given as 53.48% ± 3.05. In test [4] (Lineweaver–Burk plots of the inhibition pattern), the Inhibition mechanism result is reported as “non-competitive inhibition mechanism”. Also, the inhibition constant Ki (as a rule, a dissociation constant, usually derived from enzyme kinetics or from competition with a known ligand) in test [4] (global fit to non-competitive inhibition, Equation (5), read-out: Inhibition constant (Ki)) stood at 67.6 ± 7 µM.

With `O=c1c(O)c(-c2ccc(O)c(O)c2)oc2cc(O)cc(O)c12` [Quercetin, quercetin], in test [1], the IC50 was found to be 155 ± 10.2 µM and the “Plateau (% of Initial)” value is given as 58.86 ± 1.52 % of Initial.
